Structures are written as SMILES.

A short description of the first data set: logP determination by HPLC on a reversed-phase column (C 18), EEC Directive 79/831 Annex V.A8. It is filed as physicochemical. Particulars: method marked [a] in Table 1. Here is the method:
The stated logP values were determined in accordance with EEC Directive 79/831 Annex V.A8 by HPLC (high performance liquid chromatography) on a reversed-phase column (C 18). Temperature: 43° C.
Consider `CCc1cc(CC)nc(C(C)=NOCC(C)CON=C(C)c2cc(CC)cc(CC)n2)c1` (stereo not drawn) [compound 574], for which the logP was 5.95^[a].
On the same count and under the same terms, for `CC(=NOCC(C)(C)CON=C(C)c1cccc(-c2cc(Cl)cc(Cl)c2)n1)c1cccc(-c2cc(Cl)cc(Cl)c2)n1` [compound 578] the value was 7.36^a].

Staying with this data set, now noted: method marked [b] in Table 1.
Turning to `CC(=NOCCCCON=C(C)c1sc(C)nc1C)c1cccc(C)n1` (single isomer, unassigned) [compound 540], the logP was 3.56^[b] (isomer A).
Turning to `Cc1nc(/C(N)=N/OC/C=C/CO/N=C(\N)c2nc(C)c3c(n2)CCCC3)nc2c1CCCC2` [compound 721], the logP was 2.51^[b].
Consider `N/C(=N\OC/C=C/CO/N=C(\N)c1nc(C2CC2)cc(C2CC2)n1)c1nc(C2CC2)cc(C2CC2)n1` [compound 722], for which the logP is 3.13^[b].
Still for that read-out and setting: for `COC(CON=C(C)c1cc(C)cc(C)n1)CON=C(C)c1cc(C)cc(C)n1` (stereo not drawn) [Compound 552] the value was 1.56^[b]; for `CC(=NOCC1(CON=C(C)c2cc(C)cc(C)n2)CC(C(C)C)=NO1)c1cc(C)cc(C)n1` (stereo not drawn) [compound 638], 2.18^[b].
Same read-out and setting: in the case of `CCC(CON=C(C)c1ccc(C)c(C)n1)CON=C(C)c1ccc(C)c(C)n1` (stereo not drawn) [Compound 678] it was 3.89^[b]; in that of `CC(=NOCCCON=C(C)c1ccc(C)c(C)n1)c1cccc(C)n1` [Compound 699], 2.53^[b].
Still for that read-out and setting: for `Cc1cc(C)nc(/C(N)=N/OCc2ccccc2CO/N=C(\N)c2nc(C)cc(C)n2)n1` [compound 700] the value was 2.23^[b].
With `CCCC(=NOCC1(CON=C(CCC)c2cccc(C)n2)CC(C(C)(C)C)=NO1)c1cccc(C)n1` (stereo not drawn) [compound 620], the logP was 6.22^[b].

Staying with this data set, now noted: method marked [c] in Table 1.
Regarding `COC(CON=C(C)c1cc(C)cc(C)n1)CON=C(C)c1cc(C)cc(C)n1` (stereo not drawn) [Compound 552], the logP is 4.91^[c].
Turning to `CCC(CON=C(C)c1ccc(C)c(C)n1)CON=C(C)c1ccc(C)c(C)n1` (stereo not drawn) [Compound 678], the logP was 6.79^[c].
As to `CC(=NOCCCON=C(C)c1ccc(C)c(C)n1)c1cccc(C)n1` [Compound 699], the logP was 5.33^[c].

Staying with this data set, now noted: method marker [a] (footnote not shown); isomer A / isomer B / isomer mixture as noted in the cell.
On to `Cc1cccc(C(=NOCC(C)CON=C(c2cccc(C)n2)C(C)C)C(C)C)n1` (stereo not drawn) [compound 138], for which the logP is given as 6.22^a].
The same measure, in the same setting: in the case of `Cc1cccnc1C(CC(C)C)=NOCC(C)CON=C(CC(C)C)c1ncccc1C` (single isomer, unassigned) [compound 110] it was 5.78^[a] (isomer A); in that of `CC(=NOCCCON=C(C)c1cccc(C(C)C)n1)c1cccc(C(C)C)n1` [compound 230], 7.36^[a].
`CC(=NOCCCON=C(C)c1cccc(C)n1)c1cccc(C)n1` [Compound 14]: the logP was 2.66^[a].
Still for that read-out and setting: for `CCCC(=NOCCCCON=C(CCC)c1cccc(C)n1)c1cccc(C)n1` [compound 227] the value was 6.26^[a].

Staying with this data set, now noted: method marker [b]; isomer A / isomer B / isomer mixture as noted in the cell.
With `C=C(CON=C(C)c1cccn1C)CON=C(C)c1cccn1C` [compound 21], the logP is 5.03^[b].
Same read-out and setting: for `C=C(CO/N=C(\N)c1nc(C2CC2)cc(C2CC2)n1)CO/N=C(\N)c1nc(C2CC2)cc(C2CC2)n1` [compound 47] the value was 3.33^[b].
On to `COCc1nc(/C(N)=N/OCCCCO/N=C(\N)c2nc(COC)c(C)c(COC)n2)nc(COC)c1C` [compound 37], for which the logP was 1.75^[b].
With `C=C(CON=C(C)c1cc(C)c2ccccc2n1)CON=C(C)c1cc(C)c2ccccc2n1` [compound 160], the logP is listed as 7.00^b].
The same measure, in the same setting: in the case of `C=C(CON=C(C)c1nc(C)c(C)s1)CON=C(C)c1nc(C)c(C)s1` (single isomer, unassigned) [compound 68] it was 5.25^[b].
Consider `CCC(=NOCCCON=C(C)c1cccc(C)n1)c1ncccc1C` [compound 156], for which the logP is 3.28^[b].

The data set is the same for the next values; noted with them: reversed-phase HPLC column (C 18); HCO2H; HPLC reversed-phase column (C 18), 43° C.; read-out: logP (HCO2H).
Take `C/C(=N\OCC1(CO/N=C(\C)c2ccc(C)c(C)n2)CC1)c1cc(C)cc(C)n1` [(1E)-1-(4,6-dimethylpyridin-2-yl)ethanone O-({1-[({[(1E)-1-(5,6-dimethylpyridin-2-yl)ethylidene]amino}oxy)methyl]cyclopropyl}methyl)oxime]: the chromatographic logP was found to be 2.61.

Staying with this data set, now noted: value marked [a].
`CC(=NOC[Si](C)(CON=C(C)c1cc(C)cc(C)n1)C(C)C)c1cc(C)cc(C)n1` [Compound 836]: the logP is 5.04^[a].
Same read-out and setting: for `C=CCOC(C)(CON=C(C)c1cccc(C)n1)C(C)ON=C(C)c1cccc(C)n1` (stereo not drawn) [compound 872] the value was 6.13^[a]; for `Cc1cc(C)nc(C(Cl)=NOCC(C)CON=C(Cl)c2cc(C)cc(C)n2)c1` (stereo not drawn) [compound 833], 4.17^[a].

Staying with this data set, now noted: value marked [b].
`C=C(CON=C(C)c1cc(C)c(C)nn1)CON=C(C)c1cc(C)c(C)nn1` [compound 284]: the logP is 2.33^[b].
In the case of `CCC(=NOCCCCON=C(C)c1cccc(C)n1)c1ncccc1C` (single isomer, unassigned) [compound 529], the logP was 2.98^[b] (isomer )A.
Same read-out and setting: for `CC(=NOCCCCCCON=C(C)c1cccc(C(C)C)n1)c1cccc(C)n1` [compound 465] the value was 7.12^[b]; for `C=C(CON=C(C)c1ccc2c(c1)OCO2)CON=C(C)c1cccc(C)n1` [compound 401], 4.20^[b].
On the same count and under the same terms, in the case of `CC(=NOCC(C)(C)CON=C(C)c1nccc(C)n1)c1cccc(C)n1` [compound 511] it was 3.02^[b]; in that of `C=C(CON=C(C)c1nc(C)ccc1OC)CON=C(C)c1nc(C)ccc1OC` [Compound 283], 2.05^[b].
As to `CC(=NOC[Si](C)(CON=C(C)c1cc(C)cc(C)n1)C(C)C)c1cc(C)cc(C)n1` [Compound 836], the logP is 5.04^[b].
The same measure, in the same setting: for `CC(=NOCCCCON=C(CC(C)C)c1cccc(C)n1)c1cccc(C)n1` (single isomer, unassigned) [compound 530] the value was 5.48^[b] (isomer B); for `CC(=NOCC(O)CON=C(C)c1ccc(C)c(C)n1)c1ccc(C)c(C)n1` (stereo not drawn) [compound 323], 1.36^[b].
Take `CC(=NOCCCCCCON=C(C)c1ccc(Cl)s1)c1cccc(C)n1` [compound 459]: the logP was 6.16^[b].
Still for that read-out and setting: in the case of `CCC(=NOCCCCCCON=C(C)c1cccc(C)n1)c1ncccc1C` [compound 343] it was 4.87^[b] (isomer B); in that of `CC(=NOCCCCCCON=C(C)c1cccc(C)n1)c1ccccc1` [compound 397], 5.78^[b].
`CC(=NOCC(C)CON=C(C)c1ncccc1C)c1cccc(C)n1` (stereo not drawn) [compound 503]: the logP is 3.37^[b].
Same read-out and setting: in the case of `CC(=NOCC(C)CON=C(C)c1cccc(C(C)C)n1)c1cccc(C)n1` (stereo not drawn) [Compound 504] it was 6.29^b]; in that of `CC(=NOCCCCCCON=C(C)c1cccc(C)n1)c1ccc2c(c1)CC(C)O2` (stereo not drawn) [compound 455], 5.97^[b]; in that of `CC(=NOCCCCON=C(CC(C)C)c1cccc(C)n1)c1cccc(C)n1` (single isomer, unassigned) [compound 331], 5.46^[b] (isomer A).
On the same count and under the same terms, in the case of `C=CCOC(C)(CON=C(C)c1cccc(C)n1)C(C)ON=C(C)c1cccc(C)n1` (stereo not drawn) [compound 872] it was 6.13^[b]; in that of `CC(=NOCCCCON=C(c1cccc(C)n1)C1CC1)c1cccc(C)n1` [compound 335], 3.28^[b].
Still for that read-out and setting: in the case of `CC(=NOCC(C)CON=C(C)c1cccc(C)n1)c1ccc2ccccc2c1` (stereo not drawn) [compound 497] it was 5.84^[b].
Take `CC(=NOCCCCON=C(C)c1cccc(C)n1)c1cccc(C(F)(F)F)c1` [Compound 375]: the logP was 5.54^[b].
The same measure, in the same setting: in the case of `CC(=NOCC1(CON=C(C)c2ccc(C)c(C)n2)CCC1)c1ccc(C)c(C)n1` [Compound 319] it was 4.07^b].

Still in this data set, the particulars now being: value marked [c].
Regarding `CC(=NOC[Si](C)(CON=C(C)c1cc(C)cc(C)n1)C(C)C)c1cc(C)cc(C)n1` [Compound 836], the logP was 7.36^[c].
The same measure, in the same setting: for `CC(=NOCC(O)CON=C(C)c1ccc(C)c(C)n1)c1ccc(C)c(C)n1` (stereo not drawn) [compound 323] the value was 3.81^[c].
As for `C=CCOC(C)(CON=C(C)c1cccc(C)n1)C(C)ON=C(C)c1cccc(C)n1` (stereo not drawn) [compound 872], the logP is 6.96^[c].
Same read-out and setting: for `CC(=NOCC1(CON=C(C)c2ccc(C)c(C)n2)CCC1)c1ccc(C)c(C)n1` [Compound 319] the value was 7.05^[c].

The values are drawn from US20100022559A1, “BISOXIMES AS FUNGICIDES” (BAYER CROPSCIENCE AG, priority 2006, published 2010).
